Values of other authors as cited in EP3738589B1, “A COMPOSITION FOR THE PREVENTION AND/OR TREATMENT OF OROPHARYNGEAL MUCOSA DISEASES” (Neilos S.r.l., priority 2019, dated 2020).

Experiments:
oral mucositis = conditions: patients with cancer
[1] = tested on: patients suffering from BPCO; conditions: patients suffering from BPCO treated with NAC; from 1.71 times a year
[2] = tested on: oral mucositis caused by chemotherapy; conditions: hematopoietic SCT

Structure (SMILES)	severity of oral mucositis (oral mucositis)	reduction in exacerbations [1] [times a year]	days of discomfort are reduced by (BPCO; BPCO) [days/month]	exacerbations of the disease are reduced by (BPCO; BPCO) [exacerbation/month]	reduce hospitalizations due to BPCO by (BPCO; BPCO) [%]	increase in FEV1 (BPCO; from 25%, after a short 4-week-therapy) [%]	incidence and grade of oral mucositis [2]
O=C1O[C@H]([C@@H](O)CO)C(O)=C1O [vitamin C, ascorbic acid]	alleviates the severity of oral mucositis	–	–	–	–	–	–
CC(=O)N[C@@H](CS)C(=O)O [NAC, N-acetyl-L-cysteine]	–	0.96	0.56	0.07	30	30	reduces the incidence and grade of oral mucositis
